System: white laboratory rats
Assay: Blood glucose level in rats before and three hours after administration of the oral insulin preparation
Type: in vivo
Details: white laboratory rat, 5 units of bovine insulin, three hours after administration
Description: Two white laboratory rats, weighing 177 and 197 grams, respectively, were used in this experiment. One rat was administered a preparation of oral insulin according to the present invention containing 5 units of insulin; a formulation of the oral insulin according to the present invention containing 10 units of bovine insulin was administered to the second rat. Blood samples were drawn from each animal before and three hours after administration of the oral insulin preparation. The results given below are expressed as the percentage of the pre-experiment blood glucose level.
One white laboratory rat weighing 181 grams received a non-encapsulated preparation containing 5 units of free bovine insulin. This animal served as the control. After three hours, blood glucose level was 98.7% of the pre-experiment blood glucose level.

free bovine insulin: non-encapsulated preparation containing 5 units of free bovine insulin; served as the control
blood glucose level as percentage of the pre-experiment (initial) blood glucose level: 98.7 % of initial blood glucose lev
